Experimental data as given in US20230233569A1 (Revolution Medicines, Inc., priority 2020, published 2023).
Read-outs that look alike come from different tables or passages of the source.

Columns and labels:
[1] = ester bond, 18-membered ring, EDCI/HOBt/DIPEA, DCM, 25.0 °C
[2] = test system: P70S6K (Thr389) phosphorylation (mTORC1) in MDA-MB-468 cells; assay: Cell based AlphaLISA assay, mTOR kinase cellular assay: inhibition of p-P70S6K (T389) in MDA-MB-468 cells
How it was run: (§1)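 MDA-MB-468 cells treated with compound at 0.017-1,000 nM for two to four hours at 37° C, then lysed. Phospho-AKT1/2/3 S473, 4EBP1 T37/46 and P70S6K T389 quantified by AlphaLISA SureFire Ultra in duplicate; IC50 from normalized regression with control-based normalization.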

[3] = test system: 4EBP1 (Thr37/46) phosphorylation (mTORC1) in MDA-MB-468 cells; assay: Cell based AlphaLISA assay, mTOR kinase cellular assay: inhibition of p-4E-BP1 (T37/46) in MDA-MB-468 cells
How it was run: as §1

[4] = test system: AKT1/2/3 (Ser473) phosphorylation (mTORC2) in MDA-MB-468 cells; assay: Cell based AlphaLISA assay, mTOR kinase cellular assay: inhibition of p-Akt (S473) in MDA-MB-468 cells
How it was run: as §1

[5] = test system: Capan-2 KRASG12V/wt xenograft; assay: In vivo efficacy, Capan-2 CDX model; details: Compound A 100 mg/kg po bid
Method: Capan-2 cells were implanted in 50% Matrigel. Animals were randomized and treatment was initiated at average tumor volume of ˜180 mm3. […] Ns=no significance; ***p<0.001 by one-way ANOVA.
Once tumors reached an average size of ˜180 mm3, mice were randomized to treatment groups to start the administration of test articles or vehicle. […] Body weight and tumor volume (using calipers) was measured twice weekly until study endpoints.

[6] = Homo sapiens, read-out: pIC50 for Inhibition of mTORC1 and mTORC2 Substarte Phosphorylation p-P70S6K-(T389) (converted)
[7] = Homo sapiens, read-out: pIC50 for Inhibition of mTORC1 and mTORC2 Substarte Phosphorylation p-4E-BP1-(T37/46) (converted)
[8] = Homo sapiens, read-out: pIC50 for Inhibition of mTORC1 and mTORC2 Substarte Phosphorylation p-AKT1/2/3-(S473) (converted)

SMILES | IC50 [2, 6] [nM] | IC50 [3, 7] [nM] | IC50 [4, 8] [nM] | also measured
CC(C)[Si](Oc1cc2cc(c1)-c1ccc3[nH]c(I)c(c3c1)CC(C)(C)COC(=O)[C@@H]1CCCN(N1)C(=O)[C@@H](NC(=O)OC(C)(C)C)C2)(C(C)C)C(C)C |  |  |  | ring closure, isolated yield ([1]; from CC(C)[Si](Oc1cc(C[C@H](NC(=O)OC(C)(C)C)C(=O)N2CCC[C@@H](C(=O)O)N2)cc(-c2ccc3[nH]c(I)c(CC(C)(C)CO)c3c2)c1)(C(C)C)C(C)C, 22.8 mM, 16.0 h): 50%
CCn1c(-c2ccccc2COC)c2c3cc(ccc31)-c1cc(cc([N+](=O)[O-])c1)C[C@H](NC(=O)OC(C)(C)C)C(=O)N1CCC[C@H](N1)C(=O)OCC(C)(C)C2 |  |  |  | ring closure, isolated yield ([1]; from CCn1c(-c2ccccc2COC)c(CC(C)(C)CO)c2cc(-c3cc(C[C@H](NC(=O)OC(C)(C)C)C(=O)N4CCC[C@@H](C(=O)O)N4)cc([N+](=O)[O-])c3)ccc21, 6.4 mM): 73%
CO[C@H]1C[C@@H]2CC[C@@H](C)[C@@](O)(O2)C(=O)C(=O)N2CCCC[C@H]2C(=O)O[C@H]([C@H](C)C[C@@H]2CC[C@@H](OC(=O)NCc3cnc(N4CCN(C(=O)CN(C)CC(=O)NCCOCCOCCC(=O)NCCCCn5nc(-c6ccc7oc(N)nc7c6)c6c(N)ncnc65)CC4)nc3)[C@H](OC)C2)C[C@@H](OC)[C@H](C)/C=C(\C)[C@@H](O)[C@@H](OC)C(=O)[C@H](C)C[C@H](C)/C=C/C=C/C=C/1C [Example 104] | ≤ 1 | ≤ 3.16 | > 1000 | 
CO[C@H]1C[C@@H]2CC[C@@H](C)[C@@](O)(O2)C(=O)C(=O)N2CCCC[C@H]2C(=O)O[C@H]([C@H](C)C[C@@H]2CC[C@@H](OC(=O)N3CCc4nc(N5CCN(c6ncc(C(=O)NCCOCCOCCOCCOCCC(=O)N7CCc8cc(Cn9nc(-c%10ccc%11oc(N)nc%11c%10)c%10c(N)ncnc%109)ccc8C7)cn6)[C@@H](C(=O)O)C5)ncc4C3)[C@H](OC)C2)C[C@@H](OC)[C@H](C)/C=C(\C)[C@@H](O)[C@@H](OC)C(=O)[C@H](C)C[C@H](C)/C=C/C=C/C=C/1C [Example 105] | ≤ 1 | 3.16 to 31.6 | > 1000 | 
CO[C@H]1C[C@@H]2CC[C@@H](C)[C@@](O)(O2)C(=O)C(=O)N2CCCC[C@H]2C(=O)O[C@H]([C@H](C)C[C@@H]2CC[C@@H](OC(=O)NCc3cnc(N4CCN(c5ncc(C(=O)NCCOCCOCCOCCOCCC(=O)N6CCc7cc(Cn8nc(-c9cnc%10[nH]ccc%10c9)c9c(N)ncnc98)ccc7C6)c(N)n5)CC4)nc3)[C@H](OC)C2)CC(=O)[C@H](C)/C=C(\C)[C@@H](O)[C@@H](OC)C(=O)[C@H](C)C[C@H](C)/C=C/C=C/C=C/1C [Example 108] | 1 to 10 | > 1000 | > 1000 | 
CO[C@H]1C[C@@H]2CC[C@@H](C)[C@@](O)(O2)C(=O)C(=O)N2CCCC[C@H]2C(=O)O[C@H]([C@H](C)C[C@@H]2CC[C@@H](OC(=O)N3CCc4nc(N5CCN(c6ncc(C(=O)NCCOCCOCCOCCOCCC(=O)N7CCc8cc(Cn9nc(-c%10cnc%11[nH]ccc%11c%10)c%10c(N)ncnc%109)ccc8C7)c(N)n6)CC5)ncc4C3)[C@H](OC)C2)CC(=O)[C@H](C)/C=C(\C)[C@@H](O)[C@@H](OC)C(=O)[C@H](C)C[C@H](C)/C=C/C=C/C=C/1C [Example 109] | 10 to 1000 | > 1000 | > 1000 | 
CO[C@H]1C[C@@H]2CC[C@@H](C)[C@@](O)(O2)C(=O)C(=O)N2CCCC[C@H]2C(=O)O[C@H]([C@H](C)C[C@@H]2CC[C@@H](OC(=O)NCCOCCOCCOCCOCCOCCOCCC(=O)NC3CCN(CC(=O)N4CCc5cc(Cn6nc(-c7ccc8oc(N)nc8c7)c7c(N)ncnc76)ccc5C4)CC3)[C@H](OC)C2)C[C@@H](O)[C@H](C)/C=C(\C)[C@@H](O)[C@@H](OC)C(=O)[C@H](C)C[C@H](C)/C=C/C=C/C=C/1C [Example 112] | ≤ 1 | > 1000 | > 1000 | 
CO[C@H]1C[C@@H]2CC[C@@H](C)[C@@](O)(O2)C(=O)C(=O)N2CCCC[C@H]2C(=O)O[C@H]([C@H](C)C[C@@H]2CC[C@@H](OC(=O)NCCOCCOCCOCCOCCOCCOCCC(=O)N3CCC(N4CCC(C(=O)N5CCc6cc(Cn7nc(-c8ccc9oc(N)nc9c8)c8c(N)ncnc87)ccc6C5)CC4)CC3)[C@H](OC)C2)C[C@@H](O)[C@H](C)/C=C(\C)[C@@H](O)[C@@H](OC)C(=O)[C@H](C)C[C@H](C)/C=C/C=C/C=C/1C [Example 113] | ≤ 1 | ≤ 3.16 | 3.16 to 31.6 | 
CO[C@H]1C[C@@H]2CC[C@@H](C)[C@@](O)(O2)C(=O)C(=O)N2CCCC[C@H]2C(=O)O[C@H]([C@H](C)C[C@@H]2CC[C@@H](OC(=S)NCc3cnc(N4CCN(C(=O)CCOCCN5CCN(c6ncc(C(=O)N7CCc8cc(Cn9nc(-c%10ccc%11oc(N)nc%11c%10)c%10c(N)ncnc%109)ccc8C7)cn6)CC5)CC4)nc3)[C@H](OC)C2)C[C@@H](O)[C@H](C)/C=C(\C)[C@@H](O)[C@@H](OC)C(=O)[C@H](C)C[C@H](C)/C=C/C=C/C=C/1C [Example 117] | ≤ 1 | ≤ 3.16 | 3.16 to 31.6 | 
CO[C@H]1C[C@@H]2CC[C@@H](C)[C@@](O)(O2)C(=O)C(=O)N2CCCC[C@H]2C(=O)O[C@H]([C@H](C)C[C@@H]2CC[C@@H](OC(=O)NCc3cnc(N4CCN(C(=O)CCOCCOCCN5CCN(c6ncc(C(=O)N7CCc8cc(Cn9nc(-c%10cnc%11[nH]ccc%11c%10)c%10c(N)ncnc%109)ccc8C7)cn6)CC5)CC4)nc3)[C@H](OC)C2)CC(=O)[C@H](C)/C=C(\C)[C@@H](O)[C@@H](OC)C(=O)[C@H](C)C[C@H](C)/C=C/C=C/C=C/1C [Example 123] | ≤ 1 | ≤ 3.16 | 31.6 to 1000 | 
CO[C@H]1C[C@@H]2CC[C@@H](C)[C@@](O)(O2)C(=O)C(=O)N2CCCC[C@H]2C(=O)O[C@H]([C@H](C)C[C@@H]2CC[C@@H](OC(=O)N3CCc4nc(N5CCN(C(=O)CCOCCN6CCN(c7ncc(C(=O)N8CCc9cc(Cn%10nc(-c%11cnc%12[nH]ccc%12c%11)c%11c(N)ncnc%11%10)ccc9C8)cn7)CC6)CC5)ncc4C3)[C@H](OC)C2)CC(=O)[C@H](C)/C=C(\C)[C@@H](O)[C@@H](OC)C(=O)[C@H](C)C[C@H](C)/C=C/C=C/C=C/1C [Example 124] | ≤ 1 | ≤ 3.16 | 3.16 to 31.6 | 
CO[C@H]1C[C@@H]2CC[C@@H](C)[C@@](O)(O2)C(=O)C(=O)N2CCCC[C@H]2C(=O)O[C@H]([C@H](C)C[C@@H]2CC[C@@H](OC(=O)NCc3cnc(N4CCN(CCOCCN5CCN(c6ncc(C(=O)N7CCc8cc(Cn9nc(-c%10cnc%11[nH]ccc%11c%10)c%10c(N)ncnc%109)ccc8C7)cn6)CC5)CC4)nc3)[C@H](OC)C2)CC(=O)[C@H](C)/C=C(\C)[C@@H](O)[C@@H](OC)C(=O)[C@H](C)C[C@H](C)/C=C/C=C/C=C/1C [Example 127] | ≤ 1 | 3.16 to 31.6 | > 1000 | 
CO[C@H]1C[C@@H]2CC[C@@H](C)[C@@](O)(O2)C(=O)C(=O)N2CCCC[C@H]2C(=O)O[C@H]([C@H](C)C[C@@H]2CC[C@@H](OC(=O)N3CCc4nc(N5CCN(CCOCCN6CCN(c7ncc(C(=O)N8CCc9cc(Cn%10nc(-c%11cnc%12[nH]ccc%12c%11)c%11c(N)ncnc%11%10)ccc9C8)cn7)CC6)CC5)ncc4C3)[C@H](OC)C2)CC(=O)[C@H](C)/C=C(\C)[C@@H](O)[C@@H](OC)C(=O)[C@H](C)C[C@H](C)/C=C/C=C/C=C/1C [Example 128] | ≤ 1 | 3.16 to 31.6 | 31.6 to 1000 | 
CC(C)n1nc(-c2ccc3oc(N)nc3c2)c2c(N)ncnc21 [MLN-128] |  |  |  | IC50 ([2]; two to four hours at 37° C., AlphaLisa SureFire Ultra, read-out: IC50 for Inhibition of mTORC1 and mTORC2 Substarte Phosphorylation, p-P70S6K-(T389)): 1.4 nM; IC50 ([3]; two to four hours at 37° C., AlphaLisa SureFire Ultra, read-out: IC50 for Inhibition of mTORC1 and mTORC2 Substarte Phosphorylation, p-4E-BP1-(T37/46)): 16 nM; IC50 ([4]; two to four hours at 37° C., AlphaLisa SureFire Ultra, read-out: IC50 for Inhibition of mTORC1 and mTORC2 Substarte Phosphorylation, p-AKT1/2/3-(S473)): 3.7 nM
Cc1nc(N2CCC3(CC2)CO[C@@H](C)[C@H]3N)c(CO)nc1-c1cccc(Cl)c1Cl [RMC-4550] |  |  |  | TGI, single agent ([5]; RMC-4550 20 mg/kg po every other day, Day 40): 39%; tolerability ([5]; RMC-4550 20 mg/kg po q2d, combination, 40 days): well tolerated
CO[C@H]1C[C@@H]2CC[C@@H](C)[C@@](O)(O2)C(=O)C(=O)N2CCCC[C@H]2C(=O)O[C@H]([C@H](C)C[C@@H]2CC[C@@H](O)[C@H](OC)C2)CC(=O)[C@H](C)/C=C(\C)[C@@H](O)[C@@H](OC)C(=O)[C@H](C)C[C@H](C)/C=C/C=C/C=C/1C [Rapamycin, rapamycin, reference compound] |  |  |  | IC50 ([2]; Homo sapiens, 4 h, two to four hours at 37° C., AlphaLisa SureFire Ultra, read-out: IC50 for Inhibition of mTORC1 and mTORC2 Substarte Phosphorylation, p-P70S6K-(T389)): 0.2 nM; IC50 ([3]; Homo sapiens, 4 h, two to four hours at 37° C., AlphaLisa SureFire Ultra, read-out: IC50 for Inhibition of mTORC1 and mTORC2 Substarte Phosphorylation, p-4E-BP1-(T37/46)): > 1000 nM; IC50 ([4]; Homo sapiens, 4 h, two to four hours at 37° C., AlphaLisa SureFire Ultra, read-out: IC50 for Inhibition of mTORC1 and mTORC2 Substarte Phosphorylation, p-AKT1/2/3-(S473)): > 1000 nM
